Here are results for 16 molecules from patent US9181266B2, “2-piperidin-1-yl-acetamide compounds for use as tankyrase inhibitors” (NOVARTIS AG, priority 2011, dated 2015).

Test [1] concerns the target human tankyrase 1 PARP catalytic domain, TNKS1P (Homo sapiens (Human), UniProt O95271). The test can be described thus: TNKS1 autoparsylation assay (LC/MS detection of nicotinamide). The settings on record: read-out: TNKS1 AP IC50, 20 nM enzyme, 250 μM β-NAD+, 60 min.
Test [2] deals with Axin2 protein in SW480 cells. The test can be described thus: Cellular ELISA assay of Axin2 protein stabilization. Type of test: cell-based. The settings on record: Homo sapiens, 24 hrs, read-out: Axin AC50. On the procedure:
Cellular ELISA Assay to Determine Compound Effect on Stabilizing the Axin2 Protein Compound activity in stabilizing the Axin2 protein was measured by Sandwich Enzyme-Linked Immuosorbent (ELISA) assay in the colorectal cell line SW480. 30,000 SW480 cells were seeded per well in 96-well plate and incubated overnight prior to compound treatment. […] Cells were then washed with 100 μL of cold Phosphate Buffer Saline (PBS), and lysed in 125 μl of cold 1× lysis buffer (Cell Signaling Technology, 9803) supplemented with Protease inhibitor (Roche, 11836170) and Phosphatase inhibitors (Sigma, P2850, P5726). For the ELISA assay, anti Axin-2 capture antibody (Strategic Diagnostics) antibody was diluted to a concentration of 1 μg/ml (1:1000) in Carbonate Coating buffer, pH 9.2 (Sigma, C3041-50CAP). […], of the diluted anti Axin-2 capture antibody per well was then used to coat the 96-well ELISA plate (Thermo Electron Corp., MicroLite 1 flat bottom plate #7571) overnight at 4° C. […] After blocking, plates were then washed three times with 300 μl/well of wash solution. 100 μL of prepared SW480 cell lysate was then added to each well and incubated at room temperature for 2 hours while shaking gently. After washing, 100 μL of Biotinylated anti-Axin2 antibody (CST, 2151) was added to each well and incubated room temperature for 2 hours. 100 μL of Streptavidin-HRP (R&D systems, DY998) diluted 1:200 in 1% BSA/PBS was then added in each well and incubate for 30 mins at R/T in the dark.
In general terms: An ELISA detects its analyte on a solid surface through an enzyme-linked reagent.

Test [3] relates to Non-small lung cancer ABC-1 cells. Description: Cellular proliferation assay (CellTiter-Glo). Type of test: cell-based. The settings on record: Homo sapiens, 72 h; ABC-1 cells, 3 days of compound treatment; read-out: ABC-1 IC50.
Protocol: Cellular Proliferation Assay to Determine Compound Inhibition of Cancer Cell Growth
Viable cells were measured after 3 days of compound treatment using the CellTiter-Glo assay (Promega, G7570). Assay was performed following the manufacture protocol.
Test [4] relates to Wnt ligand-induced signaling in HEK293 cells. The test can be described thus: Wnt-responsive Super-TOpFlash (STF) luciferase reporter gene assay. Type of test: cell-based. The note with it: Homo sapiens, Wnt3A condition medium. On the procedure:
Cellular Reporter Gene Assay to Determine Compound Inhibition of Wnt Signaling Activity
Compound activity in inhibiting Wnt ligand-induced signaling was measured using a Wnt-responsive Super-TOpFlash (STF) luciferase reporter gene assay in HEK293 cells. On day 1 of the assay, cells were plated at a density of 8000 cells per well of 384-well plate in 25 μl medium containing 5% fetal bovine serum (FBS). On the second day, […] condition medium (CM) produced from mouse L cells was added to the cells to induce Wnt signaling, followed by addition of 5 μL of compounds each well in 10-point serial dilution. On the third day, the luciferase activity was measured by the Bright-Glo™ Luciferase Assay System following manufacture's protocol (Promega, E2620). The Inhibition was calculated as: (Maximum Wnt-induced signaling−Sample)/(Maximum Wnt-induced signaling−Background)*100. “Maximum Wnt-induced signaling” is the STF signal level induced by 20% Wnt3A CM without compound; and “Background” is the STF signal level without the addition of Wnt3A CM or compound.
A general note: A reporter such as luciferase makes a cellular process visible.

In test [5] the target is tankyrase 2 protein PARP domain, TNKS2P (Homo sapiens (Human), UniProt Q9H2K2). The test can be described thus: TNKS2 autoparsylation assay (LC/MS detection of nicotinamide). The note with it: read-out: TNKS2 AP IC50, 20 nM enzyme, 250 μM β-NAD+, 60 min.
Sequence of tankyrase 2 protein PARP domain, TNKS2P (Q9H2K2 959-1164): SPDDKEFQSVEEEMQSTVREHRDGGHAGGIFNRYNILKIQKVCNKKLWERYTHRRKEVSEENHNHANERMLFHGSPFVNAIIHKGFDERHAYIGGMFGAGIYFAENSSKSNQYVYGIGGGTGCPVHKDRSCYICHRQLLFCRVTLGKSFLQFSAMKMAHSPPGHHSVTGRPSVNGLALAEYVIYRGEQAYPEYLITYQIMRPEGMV
Protocol: Biochemical Assay to Determine Compound Inhibition of TNKS Enzyme Activity
The autoparsylation activity of the TNKS 1/2 or PARP1/2 enzymes was measured by the liquid chromatography-mass spectrometry (LC/MS) detection of nicotinamide as readout. Compound activity in inhibiting the TNKS and PARP autoparsylation was evaluated by IC50 measurements. […] For the background control wells, 10 μL of the 5× quenching solution per well was added prior to the addition of β-NAD^+. The % Inhibition was calculated as: (Control−Sample)/(Control−Background)*100.

Sequence of human tankyrase 1 PARP catalytic domain, TNKS1P (O95271 1112-1317): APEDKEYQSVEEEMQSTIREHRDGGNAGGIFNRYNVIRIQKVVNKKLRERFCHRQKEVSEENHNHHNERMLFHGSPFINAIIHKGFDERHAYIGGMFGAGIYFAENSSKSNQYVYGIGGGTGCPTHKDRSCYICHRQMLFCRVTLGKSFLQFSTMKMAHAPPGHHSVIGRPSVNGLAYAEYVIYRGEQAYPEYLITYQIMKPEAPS

By IC50 is commonly meant the concentration that inhibits the measured activity by half. In general, AC50 refers to the concentration giving half of the maximal activity seen. Regarding `O=C(CN1CCC(C(=O)c2ccc(F)cc2)CC1)NCc1nc2c(c(=O)[nH]1)COCC2` [Example 1, 2-(4-(4-Fluorobenzoyl)piperidin-1-yl)-N-((4-oxo-4,5,7,8-tetrahydro-3H-pyrano[4,3-d]pyrimidin-2-yl)methyl)acetamide], the figures for the 50% inhibitory concentration (IC50) in test [1] and in test [3] were 64 ± 8 nM and 1050 ± 390 nM, respectively. The AC50 in test [2] was 880 ± 210 nM.
Taken in the same sequence, the figures for `COc1ccc(C(=O)C2CCN(CC(=O)N(Cc3nc4c(c(=O)[nH]3)COCC4)CC3CC3)CC2)cc1` [Example 5, N-Cyclopropylmethyl-2-[4-(4-methoxy-benzoyl)-piperidin-1-yl]-N-(4-oxo-3,5,7,8-tetrahydro-4H-pyrano[4,3-d]pyrimidin-2-ylmethyl)-acetamide] were 15.5 ± 3.5 nM, 32 ± 4 nM and 60 ± 60 nM.
For `O=C(c1ccc(F)cc1)C1CCN(CC(=O)N(Cc2ccncc2)Cc2nc3c(c(=O)[nH]2)COCC3)CC1` [Example 20, 2-(4-(4-Fluorobenzoyl)piperidin-1-yl)-N-((4-oxo-4,5,7,8-tetrahydro-3H-pyrano[4,3-d]pyrimidin-2-yl)methyl)-N-(pyridin-4-ylmethyl)acetamide], the figures for the IC50 in test [1], in test [4] and in test [5] were 845 ± 12 nM, 2390 ± 250 nM and 206 ± 2 nM, respectively.
`O=C(c1ccc(F)cc1)C1CCN(CC(=O)N(Cc2cccnc2)Cc2nc3c(c(=O)[nH]2)COCC3)CC1` [Example 21, 2-(4-(4-Fluorobenzoyl)piperidin-1-yl)-N-((4-oxo-4,5,7,8-tetrahydro-3H-pyrano[4,3-d]pyrimidin-2-yl)methyl)-N-(pyridin-3-ylmethyl)acetamide]: the IC50 in test [1] is 214 ± 2 nM; in test [4], 460 ± 280 nM; in test [5], 42 ± 1 nM.
In the case of `CN(Cc1nc2c(c(=O)[nH]1)COCC2)C(=O)CN1CCC(C(=O)c2ccc(F)cc2)CC1` [Example 30], in test [1], the half-maximal inhibitory concentration (IC50) turned out to be 241 ± 30 nM. Also, the AC50 in test [2] was 6000 ± 500 nM.
The like results for `CCCN(Cc1nc2c(c(=O)[nH]1)COCC2)C(=O)CN1CCC(C(=O)c2ccc(F)cc2)CC1` [Example 34, 2-(4-(4-Fluorobenzoyl)piperidin-1-yl)-N-((4-oxo-4,5,7,8-tetrahydro-3H-pyrano[4,3-d]pyrimidin-2-yl)methyl)-N-propylacetamide] were, in that order, 46 ± 1 nM and 1010 ± 70 nM.
Regarding `C[C@@H](c1ccc(F)cc1)N(Cc1nc2c(c(=O)[nH]1)COCC2)C(=O)CN1CCC(C(=O)c2ccc(F)cc2)CC1` [Example 35, (S)-2-(4-(4-Fluorobenzoyl)piperidin-1-yl)-N-(1-(4-fluorophenyl)ethyl)-N-((4-oxo-4,5,7,8-tetrahydro-3H-pyrano[4,3-d]pyrimidin-2-yl)methyl)acetamide], the figures for the IC50 in test [1], in test [4] and in test [5] were 256 ± 4 nM, 179 ± 20 nM and 68 ± 1 nM, respectively.
As to `O=C(c1ccc(F)cc1)C1CCN(CC(=O)N(Cc2nc3c(c(=O)[nH]2)COCC3)Cc2ccc(S(=O)(=O)N3CCOCC3)s2)CC1` [Example 47, 2-[4-(4-Fluoro-benzoyl)-piperidin-1-yl]-N-[5-(morpholine-4-sulfonyl)-thiophen-2-ylmethyl]-N-(4-oxo-3,5,7,8-tetrahydro-4H-pyrano[4,3-d]pyrimidin-2-ylmethyl)-acetamide], the values for the concentration for half-maximal inhibition (IC50) in test [1], in test [4] and in test [5] were 561 ± 49 nM, 1830 ± 390 nM and 66 ± 2 nM, respectively. Besides, in test [2], the AC50 worked out at 5000 ± 2300 nM.
In the case of `COc1ccc(-c2nnc(C3CCN(CC(=O)NCc4nc5c(c(=O)[nH]4)COCC5)CC3)o2)cc1` [Example 56, 2-{4-[5-(4-Methoxy-phenyl)-[1,3,4]oxadiazol-2-yl]-piperidin-1-yl}-N-(4-oxo-3,5,7,8-tetrahydro-4H-pyrano[4,3-d]pyrimidin-2-ylmethyl)-acetamide], the IC50 in test [1] was determined as 548 ± 39 nM; in test [4], 207 ± 21 nM; in test [5], 89 ± 3 nM; in test [3] it was 641 nM.
On to `O=C(CN1CCC(c2n[nH]c3cc(F)ccc23)CC1)NCc1nc2c(c(=O)[nH]1)COCC2` [Example 57, 2-[4-(6-Fluoro-1H-indazol-3-yl)-piperidin-1-yl]-N-(4-oxo-3,5,7,8-tetrahydro-4H-pyrano[4,3-d]pyrimidin-2-ylmethyl)acetamide], for which the IC50 in test [1] was 1210 ± 100 nM; in test [4] it was 207 ± 35 nM; in test [5], 270 ± 10 nM; in test [3] it was 649 nM.
As to `COc1ccc2c(C3CCN(CC(=O)NCc4nc5c(c(=O)[nH]4)COCC5)CC3)n[nH]c2c1` [Example 58, 2-[4-(6-Methoxy-1H-indazol-3-yl)-piperidin-1-yl]-N-(4-oxo-3,5,7,8-tetrahydro-4H-pyrano[4,3-c]pyrimidin-2-ylmethyl)-acetamide], the 50% inhibitory concentration (IC50) was 1490 ± 50 nM in test [1], 4500 ± 400 nM in test [4], 311 ± 39 nM in test [5] and more than 10000 nM in test [3].
In the case of `O=C(CN1CCC(n2cc(-c3ccccc3)cn2)CC1)NCc1nc2c(c(=O)[nH]1)COCC2` [Example 59, N-(4-Oxo-3,5,7,8-tetrahydro-4H-pyrano[4,3-d]pyrimidin-2-ylmethyl)-2-[4-(4-phenyl-pyrazol-1-yl)-piperidin-1-yl]-acetamide], the IC50 came out at 2250 ± 23 nM in test [1], 3940 ± 120 nM in test [4], 188 ± 16 nM in test [5] and 8170 nM in test [3].
As to `COc1ccc(-c2cnn(C3CCN(CC(=O)NCc4nc5c(c(=O)[nH]4)COCC5)CC3)c2)cc1` [Example 60, 2-{4-[4-(4-Methoxy-phenyl)-pyrazol-1-yl]-piperidin-1-yl}-N-(4-oxo-3,5,7,8-tetrahydro-4H-pyrano[4,3-d]pyrimidin-2-ylmethyl)-acetamide], the IC50 in test [1] amounted to 3800 ± 100 nM; in test [4], 1100 ± 110 nM; in test [5] it was 386 ± 7 nM; in test [3], 5850 nM.
Take `O=C(c1ccc(C(F)(F)F)cc1)C1CCN(CC(=O)N(Cc2nc3c(c(=O)[nH]2)COCC3)CC(F)F)CC1` [Example 75, N-(2,2-Difluoro-ethyl)-N-(4-oxo-3,5,7,8-tetrahydro-4H-pyrano[4,3-d]pyrimidin-2-ylmethyl)-2-[4-(4-trifluoromethyl-benzoyl)-piperidin-1-yl]-acetamide]: the IC50 was 73 ± 5 nM in test [1], 290 ± 130 nM in test [4], 17 ± 1 nM in test [5] and 6050 nM in test [3].
On to `COc1ccc2c(c1)CCCN2C(=O)C1CCN(CC(=O)NCc2nc3c(c(=O)[nH]2)COCC3)CC1` [Example 80, 2-(4-(6-Methoxy-1,2,3,4-tetrahydroquinoline-1-carbonyl)piperidin-1-yl)-N-((4-oxo-4,5,7,8-tetrahydro-3H-pyrano[4,3-d]pyrimidin-2-yl)methyl)acetamide], for which the IC50 in test [1] was more than 19000 nM; in test [4], 6400 ± 1100 nM; in test [5] it was 31200 nM.
Take `O=C(CN1CCC(C(=O)N2CCc3c(Cl)cccc3C2)CC1)NCc1nc2c(c(=O)[nH]1)COCC2` [Example 81, 2-(4-(5-Chloro-1,2,3,4-tetrahydroisoquinoline-2-carbonyl)piperidin-1-yl)-N-((4-oxo-4,5,7,8-tetrahydro-3H-pyrano[4,3-d]pyrimidin-2-yl)methyl)acetamide]: the figures for the IC50 in test [1], in test [4] and in test [5] were 761 ± 18 nM, more than 10000 nM and 244 ± 24 nM, respectively.
